Laboratory results as given in patent US10815230B2, “Casein kinase 1 delta inhibitor” (ELECTROPHORETICS LIMITED, priority 2015, dated 2020).
Where two headings read alike, the source gives them in different places.

Columns and labels:
[1] = Pharmacokinetics in male CD-1 mice; format: in vivo; conditions: for AUCex: percent of AUC0-inf that is extrapolated; for AUC(0-t): male, CD-1, mouse; for AUC(0-t) / bioavailability / Cmax / Tmax / half-life / AUC(0-inf) / clearance / Vd / CL/F / Vd/F: plasma; for bioavailability / Cmax / Tmax / half-life / AUC(0-inf) / clearance / Vd / CL/F / Vd/F: mouse; for bioavailability: read-out: F (oral bioavailability); for AUC(0-inf) / clearance / Vd / CL/F / Vd/F: predicted; for Vd: read-out: Vz; for Vd/F: read-out: Vz/F
Experimental: Six groups of male CD-1 mice of approximately 25-35 g (about 8 weeks of age) were dosed with Comparative compound 324 and Compound A intravenously (IV) (in 10% DMSO:90% Hydroxypropyl-β-cyclodextrin (20% aq. w/v)) or orally (PO) (in 0.5% w/v methylcelluose (aq.) according to the regimen shown in Table 6.
Intravenous doses was administered into a tail vein at a constant dose volume of 5 mL/kg to achieve a dose level of 3 mg/kg. Oral doses were administered as a single bolus dose via syringe with attached polypropylene gavage tube at a constant dose volume of 10 mL/kg to achieve dose levels of 3 mg/kg (groups 2 and 4) and 30 mg/kg (group 3 and 6).
Following dosing, blood samples were collected into individual K3EDTA tubes by cardiac puncture under terminal anaesthesia (isoflurane) from 3 animals per timepoint. Following collection animal were sacrificed by cervical dislocation. Samples were taken at 5, 15 and 30 minutes and then 1, 2, 4, 8 and 24 hours post-IV dose and 15 and 30 minutes and then 1, 2, 4, 8 and 24 hours post-OP dose.
Upon collection, blood samples were centrifuged at 10,000×g, 2 minutes at 4° C. and the resultant plasma was drawn off and stored at −20° C. for analysis by LC-MS/MS of the concentration of the compounds. The remaining blood call pellet was discarded.
Pharmacokinetic parameters were derived by non-compartmental analysis (linear/logarithmic trapezoidal) using WinNonlin (Version 4.1 or higher) software.

[2] = biological target: ABL1 (H396P) non-phosphorylated (Homo sapiens, UniProt P00519, H396P); assay: KINOMEscan binding assay; conditions: read-out: % Ctrl @ 10000 nM
[3] = biological target: ABL1 (Q252H) non-phosphorylated (Homo sapiens, UniProt P00519, Q252H); assay: KINOMEscan binding assay; conditions: read-out: % Ctrl @ 10000 nM
[4] = biological target: BRAF (Homo sapiens, UniProt P15056); assay: KINOMEscan binding assay; conditions: read-out: % Ctrl @ 10000 nM
[5] = biological target: CAMK1G (Homo sapiens, UniProt Q96NX5); assay: KINOMEscan binding assay; conditions: read-out: % Ctrl @ 10000 nM
Chain of CAMK1G (Q96NX5 whole entry): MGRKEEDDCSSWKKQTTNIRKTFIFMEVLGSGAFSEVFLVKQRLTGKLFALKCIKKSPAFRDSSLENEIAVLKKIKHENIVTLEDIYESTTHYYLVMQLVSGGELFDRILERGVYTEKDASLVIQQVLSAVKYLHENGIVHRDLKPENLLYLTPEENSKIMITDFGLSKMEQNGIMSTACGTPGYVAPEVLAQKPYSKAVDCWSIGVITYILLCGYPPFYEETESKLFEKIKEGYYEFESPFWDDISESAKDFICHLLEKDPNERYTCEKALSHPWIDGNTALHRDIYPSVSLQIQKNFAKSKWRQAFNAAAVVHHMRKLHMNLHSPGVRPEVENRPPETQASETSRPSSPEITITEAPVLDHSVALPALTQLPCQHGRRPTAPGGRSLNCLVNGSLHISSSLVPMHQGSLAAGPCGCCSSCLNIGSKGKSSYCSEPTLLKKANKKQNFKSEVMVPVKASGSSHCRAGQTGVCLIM

[6] = biological target: CAMK2A (Homo sapiens, UniProt Q9UQM7); assay: KINOMEscan binding assay; conditions: read-out: % Ctrl @ 10000 nM
[7] = biological target: CDC2L1 (Homo sapiens, UniProt P21127); assay: KINOMEscan binding assay; conditions: read-out: % Ctrl @ 10000 nM
[8] = biological target: CDC2L5 (Homo sapiens, UniProt Q14004); assay: KINOMEscan binding assay; conditions: read-out: % Ctrl @ 10000 nM
[9] = biological target: DAPK2 (Homo sapiens, UniProt Q9UIK4); assay: KINOMEscan binding assay; conditions: read-out: % Ctrl @ 10000 nM
Chain of DAPK2 (Q9UIK4 whole entry): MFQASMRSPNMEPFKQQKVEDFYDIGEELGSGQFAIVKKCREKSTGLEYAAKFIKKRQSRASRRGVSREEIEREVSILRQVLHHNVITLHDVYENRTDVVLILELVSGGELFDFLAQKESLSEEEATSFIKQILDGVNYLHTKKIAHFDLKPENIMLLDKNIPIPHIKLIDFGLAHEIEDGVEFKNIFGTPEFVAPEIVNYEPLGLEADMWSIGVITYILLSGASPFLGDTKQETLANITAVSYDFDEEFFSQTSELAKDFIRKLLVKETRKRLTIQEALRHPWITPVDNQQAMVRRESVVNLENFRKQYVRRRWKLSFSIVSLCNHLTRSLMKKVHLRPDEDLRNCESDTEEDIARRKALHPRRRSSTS

[10] = biological target: EGFR (G719S) (Homo sapiens, UniProt P00533, G719S); assay: KINOMEscan binding assay; conditions: read-out: % Ctrl @ 10000 nM
[11] = biological target: HASPIN (Homo sapiens, UniProt Q8TF76); assay: KINOMEscan binding assay; conditions: read-out: % Ctrl @ 10000 nM
[12] = biological target: JAK1 (JH2domain-pseudokinase) (Homo sapiens, UniProt P23458); assay: KINOMEscan binding assay; conditions: read-out: % Ctrl @ 10000 nM
Chain of JAK1 (JH2domain-pseudokinase) (P23458 583-855 limits assumed): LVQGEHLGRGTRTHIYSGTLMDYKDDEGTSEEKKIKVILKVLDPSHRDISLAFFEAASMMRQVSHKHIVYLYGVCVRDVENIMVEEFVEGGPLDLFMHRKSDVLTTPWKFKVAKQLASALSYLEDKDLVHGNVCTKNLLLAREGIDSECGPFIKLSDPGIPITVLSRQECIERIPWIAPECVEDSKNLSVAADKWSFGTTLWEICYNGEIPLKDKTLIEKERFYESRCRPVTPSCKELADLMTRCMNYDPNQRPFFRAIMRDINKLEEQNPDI

[13] = biological target: KIT (Homo sapiens, UniProt P10721); assay: KINOMEscan binding assay; conditions: read-out: % Ctrl @ 10000 nM
Chain of KIT (P10721 26-976): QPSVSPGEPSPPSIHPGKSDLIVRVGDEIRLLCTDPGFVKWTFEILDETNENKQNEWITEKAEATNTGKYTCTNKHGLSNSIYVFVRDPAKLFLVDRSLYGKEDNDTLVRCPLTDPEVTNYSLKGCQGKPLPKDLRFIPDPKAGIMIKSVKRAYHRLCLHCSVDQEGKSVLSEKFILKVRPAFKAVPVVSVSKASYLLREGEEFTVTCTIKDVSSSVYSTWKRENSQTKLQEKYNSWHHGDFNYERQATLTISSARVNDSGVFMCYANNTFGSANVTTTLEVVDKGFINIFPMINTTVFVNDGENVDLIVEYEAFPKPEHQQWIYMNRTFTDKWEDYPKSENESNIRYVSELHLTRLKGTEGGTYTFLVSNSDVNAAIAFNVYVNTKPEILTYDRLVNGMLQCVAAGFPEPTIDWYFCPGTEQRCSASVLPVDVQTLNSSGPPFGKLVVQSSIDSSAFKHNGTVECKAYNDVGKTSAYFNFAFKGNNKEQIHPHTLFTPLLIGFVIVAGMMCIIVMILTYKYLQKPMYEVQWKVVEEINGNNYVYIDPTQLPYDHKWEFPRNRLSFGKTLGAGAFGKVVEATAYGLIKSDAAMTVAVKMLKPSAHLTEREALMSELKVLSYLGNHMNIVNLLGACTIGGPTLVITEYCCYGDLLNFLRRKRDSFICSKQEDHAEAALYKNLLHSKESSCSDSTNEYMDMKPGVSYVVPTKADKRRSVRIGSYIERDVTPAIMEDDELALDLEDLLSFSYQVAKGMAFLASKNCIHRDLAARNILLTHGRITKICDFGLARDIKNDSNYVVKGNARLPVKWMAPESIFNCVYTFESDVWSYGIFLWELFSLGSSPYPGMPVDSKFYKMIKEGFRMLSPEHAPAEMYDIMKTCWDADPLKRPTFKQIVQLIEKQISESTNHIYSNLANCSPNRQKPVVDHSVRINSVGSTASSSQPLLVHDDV

[14] = biological target: LOK (Homo sapiens, UniProt O94804); assay: KINOMEscan binding assay; conditions: read-out: % Ctrl @ 10000 nM
[15] = biological target: MLK2 (Homo sapiens, UniProt Q02779); assay: KINOMEscan binding assay; conditions: read-out: % Ctrl @ 10000 nM
Chain of MLK2 (Q02779 whole entry): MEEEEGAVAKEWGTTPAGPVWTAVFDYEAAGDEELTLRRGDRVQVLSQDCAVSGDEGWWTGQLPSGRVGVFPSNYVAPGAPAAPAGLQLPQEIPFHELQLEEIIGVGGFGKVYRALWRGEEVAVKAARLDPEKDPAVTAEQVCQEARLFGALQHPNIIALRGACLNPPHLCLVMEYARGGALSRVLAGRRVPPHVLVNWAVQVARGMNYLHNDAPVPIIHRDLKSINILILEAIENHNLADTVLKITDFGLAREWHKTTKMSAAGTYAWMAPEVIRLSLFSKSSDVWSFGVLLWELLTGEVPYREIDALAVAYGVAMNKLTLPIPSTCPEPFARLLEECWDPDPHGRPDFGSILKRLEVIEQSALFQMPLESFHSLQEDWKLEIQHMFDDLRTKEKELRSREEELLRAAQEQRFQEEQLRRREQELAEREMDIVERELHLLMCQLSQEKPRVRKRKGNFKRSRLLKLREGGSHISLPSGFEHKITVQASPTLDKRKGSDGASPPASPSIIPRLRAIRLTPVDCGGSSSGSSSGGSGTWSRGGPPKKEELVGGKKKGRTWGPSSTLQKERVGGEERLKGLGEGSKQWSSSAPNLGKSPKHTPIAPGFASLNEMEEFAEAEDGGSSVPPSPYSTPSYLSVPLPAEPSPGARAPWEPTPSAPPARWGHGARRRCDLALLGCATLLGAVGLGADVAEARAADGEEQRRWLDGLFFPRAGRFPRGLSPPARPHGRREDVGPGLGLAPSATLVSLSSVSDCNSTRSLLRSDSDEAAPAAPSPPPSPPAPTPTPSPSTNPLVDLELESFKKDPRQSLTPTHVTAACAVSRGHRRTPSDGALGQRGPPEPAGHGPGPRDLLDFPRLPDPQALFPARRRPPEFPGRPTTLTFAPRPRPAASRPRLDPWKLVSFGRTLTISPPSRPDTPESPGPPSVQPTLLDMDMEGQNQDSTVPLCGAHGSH

[16] = biological target: NDR2 (Homo sapiens, UniProt Q9Y2H1); assay: KINOMEscan binding assay; conditions: read-out: % Ctrl @ 10000 nM
[17] = biological target: NIM1 (Homo sapiens, UniProt Q8IY84); assay: KINOMEscan binding assay; conditions: read-out: % Ctrl @ 10000 nM
[18] = biological target: PCTK2 (Homo sapiens, UniProt Q00537); assay: KINOMEscan binding assay; conditions: read-out: % Ctrl @ 10000 nM
[19] = biological target: PDPK1 (Homo sapiens, UniProt O15530); assay: KINOMEscan binding assay; conditions: read-out: % Ctrl @ 10000 nM
Chain of PDPK1 (O15530 whole entry): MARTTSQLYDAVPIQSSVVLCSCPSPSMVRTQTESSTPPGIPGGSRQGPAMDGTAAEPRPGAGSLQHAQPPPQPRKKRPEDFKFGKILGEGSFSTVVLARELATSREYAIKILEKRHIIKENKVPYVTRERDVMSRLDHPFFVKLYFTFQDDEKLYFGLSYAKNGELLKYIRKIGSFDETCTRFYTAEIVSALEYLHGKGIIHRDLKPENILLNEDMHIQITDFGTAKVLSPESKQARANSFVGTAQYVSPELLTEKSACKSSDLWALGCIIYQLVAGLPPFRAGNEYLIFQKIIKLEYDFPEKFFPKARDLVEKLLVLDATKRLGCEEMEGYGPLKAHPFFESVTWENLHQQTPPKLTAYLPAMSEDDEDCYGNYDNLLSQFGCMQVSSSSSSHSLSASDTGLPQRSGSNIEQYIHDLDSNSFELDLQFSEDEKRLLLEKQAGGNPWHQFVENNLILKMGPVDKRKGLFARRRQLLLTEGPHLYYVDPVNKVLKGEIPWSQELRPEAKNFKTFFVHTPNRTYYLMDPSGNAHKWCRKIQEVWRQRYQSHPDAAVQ

[20] = biological target: PIP5K2C (Homo sapiens, UniProt Q8TBX8); assay: KINOMEscan binding assay; conditions: read-out: % Ctrl @ 10000 nM
[21] = biological target: PKN2 (Homo sapiens, UniProt Q16513); assay: KINOMEscan binding assay; conditions: read-out: % Ctrl @ 10000 nM
Chain of PKN2 (Q16513 whole entry): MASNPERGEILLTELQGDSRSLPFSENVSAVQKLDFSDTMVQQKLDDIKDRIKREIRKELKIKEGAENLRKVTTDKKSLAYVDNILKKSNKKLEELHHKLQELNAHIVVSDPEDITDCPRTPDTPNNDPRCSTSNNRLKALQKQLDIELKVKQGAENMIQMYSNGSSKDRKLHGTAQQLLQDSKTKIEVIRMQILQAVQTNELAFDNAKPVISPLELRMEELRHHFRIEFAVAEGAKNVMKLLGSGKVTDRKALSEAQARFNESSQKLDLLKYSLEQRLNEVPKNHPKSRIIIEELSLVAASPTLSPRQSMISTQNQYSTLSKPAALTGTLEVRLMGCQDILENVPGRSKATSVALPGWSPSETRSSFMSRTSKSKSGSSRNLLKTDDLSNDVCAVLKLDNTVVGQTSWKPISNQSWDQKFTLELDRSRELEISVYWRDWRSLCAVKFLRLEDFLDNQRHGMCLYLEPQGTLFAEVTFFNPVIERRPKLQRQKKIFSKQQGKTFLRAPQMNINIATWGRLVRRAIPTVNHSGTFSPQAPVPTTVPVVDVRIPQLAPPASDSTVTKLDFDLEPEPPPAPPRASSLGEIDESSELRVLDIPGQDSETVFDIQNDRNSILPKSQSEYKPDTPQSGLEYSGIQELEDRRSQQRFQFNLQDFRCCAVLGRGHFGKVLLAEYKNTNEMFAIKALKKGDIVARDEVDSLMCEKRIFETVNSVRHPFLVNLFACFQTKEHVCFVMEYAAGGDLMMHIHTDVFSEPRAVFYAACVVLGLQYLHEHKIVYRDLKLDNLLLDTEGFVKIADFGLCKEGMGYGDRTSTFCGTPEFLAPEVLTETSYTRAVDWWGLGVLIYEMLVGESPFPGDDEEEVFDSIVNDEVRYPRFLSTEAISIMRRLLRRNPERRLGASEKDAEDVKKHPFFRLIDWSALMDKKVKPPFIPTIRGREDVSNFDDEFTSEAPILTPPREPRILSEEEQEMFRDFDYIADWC

[22] = biological target: PLK3 (Homo sapiens, UniProt Q9H4B4); assay: KINOMEscan binding assay; conditions: read-out: % Ctrl @ 10000 nM
[23] = biological target: PRKCD (Homo sapiens, UniProt Q05655); assay: KINOMEscan binding assay; conditions: read-out: % Ctrl @ 10000 nM
[24] = biological target: PRKG1 (Homo sapiens, UniProt Q13976); assay: KINOMEscan binding assay; conditions: read-out: % Ctrl @ 10000 nM
[25] = biological target: RIPK4 (Homo sapiens, UniProt P57078); assay: KINOMEscan binding assay; conditions: read-out: % Ctrl @ 10000 nM
[26] = biological target: SIK (Homo sapiens, UniProt P57059); assay: KINOMEscan binding assay; conditions: read-out: % Ctrl @ 10000 nM
[27] = biological target: TBK1 (Homo sapiens, UniProt Q9UHD2); assay: KINOMEscan binding assay; conditions: read-out: % Ctrl @ 10000 nM
[28] = biological target: TNK1 (Homo sapiens, UniProt Q13470); assay: KINOMEscan binding assay; conditions: read-out: % Ctrl @ 10000 nM
[29] = biological target: T1, YSK1 (Homo sapiens, UniProt O00506); assay: KINOMEscan binding assay; conditions: read-out: % Ctrl @ 10000 nM
T1 construct: purchased DiscoveRx (KINOMEscan, LeadHunter Discovery services)
T1 sequence (O00506 whole entry): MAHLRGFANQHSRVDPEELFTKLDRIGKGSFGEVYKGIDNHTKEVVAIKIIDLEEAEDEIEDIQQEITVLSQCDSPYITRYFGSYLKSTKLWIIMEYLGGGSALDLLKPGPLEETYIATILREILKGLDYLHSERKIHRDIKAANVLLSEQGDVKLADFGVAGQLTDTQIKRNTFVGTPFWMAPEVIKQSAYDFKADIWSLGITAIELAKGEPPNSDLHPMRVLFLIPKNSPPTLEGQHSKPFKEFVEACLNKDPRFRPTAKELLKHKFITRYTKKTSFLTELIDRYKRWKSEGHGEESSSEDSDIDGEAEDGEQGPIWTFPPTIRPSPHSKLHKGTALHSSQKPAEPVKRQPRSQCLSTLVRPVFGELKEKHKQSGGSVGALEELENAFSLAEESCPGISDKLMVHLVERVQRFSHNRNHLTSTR

[30] = iv, 3 mg/kg, IV 3 mg/kg, male CD-1 mice, read-out: AUC0-24 h
[31] = iv, 3 mg/kg, IV 3 mg/kg, male CD-1 mice, read-out: AUC0-t
[32] = po, 3 mg/kg, PO 3 mg/kg, male CD-1 mice, read-out: AUC0-24 h
[33] = po, 3 mg/kg, PO 3 mg/kg, male CD-1 mice, read-out: AUC0-t
[34] = po, 30 mg/kg, PO 30 mg/kg, male CD-1 mice, read-out: AUC0-24 h
[35] = po, 30 mg/kg, PO 30 mg/kg, male CD-1 mice, read-out: AUC0-t

Nc1ncc(-c2nc3ccccc3o2)c(-c2ccncc2)n1 [Comparative Compound 324, 5-(1,3-benzoxazol-2-yl)-4-(pyridine-4-yl)pyrimidin-2-amine]
AUCex ([1]; IV 3 mg/kg): 1.9%
AUC(0-t) [1, 30]: 315 ng·h/mL
AUC(0-t) [1, 31]: 304 ng·h/mL
AUC(0-t) [1, 32]: 11.1 ng·h/mL
AUC(0-t) [1, 33]: 8.66 ng·h/mL
AUC(0-t) [1, 34]: 1590 ng·h/mL
AUC(0-t) [1, 35]: 1210 ng·h/mL
bioavailability ([1]; PO 3 mg/kg, male CD-1 mice): 3%
bioavailability ([1]; PO 30 mg/kg, male CD-1 mice): 40%
Cmax ([1]; IV 3 mg/kg, male CD-1 mice): 1150 ng/mL
Tmax ([1]; IV 3 mg/kg, male CD-1 mice): 4.98 min
half-life ([1]; IV 3 mg/kg, male CD-1 mice): 5.46 min
AUC(0-inf) ([1]; IV 3 mg/kg, male CD-1 mice): 309 ng·h/mL
clearance ([1]; IV 3 mg/kg, male CD-1 mice): 162 mL/min/kg
Vd ([1]; IV 3 mg/kg, male CD-1 mice): 1.27 L/kg
Cmax ([1]; PO 3 mg/kg, male CD-1 mice): 14 ng/mL
Tmax ([1]; PO 3 mg/kg, male CD-1 mice): 15 min
Cmax ([1]; PO 30 mg/kg, male CD-1 mice): 666 ng/mL
Tmax ([1]; PO 30 mg/kg, male CD-1 mice): 30 min
remaining binding at 10 µM [2]: 66%
remaining binding at 10 µM [3]: 31%
remaining binding at 10 µM [4]: 77%
remaining binding at 10 µM [5]: 89%
remaining binding at 10 µM [6]: 99%
remaining binding at 10 µM [7]: 91%
remaining binding at 10 µM [8]: 93%
remaining binding at 10 µM [9]: 100%
remaining binding at 10 µM [10]: 63%
remaining binding at 10 µM [11]: 70%
remaining binding at 10 µM [12]: 17%
remaining binding at 10 µM [13]: 91%
remaining binding at 10 µM [14]: 72%
remaining binding at 10 µM [15]: 100%
remaining binding at 10 µM [16]: 96%
remaining binding at 10 µM [17]: 96%
remaining binding at 10 µM [18]: 99%
remaining binding at 10 µM [19]: 100%
remaining binding at 10 µM [20]: 72%
remaining binding at 10 µM [21]: 94%
remaining binding at 10 µM [22]: 99%
remaining binding at 10 µM [23]: 86%
remaining binding at 10 µM [24]: 100%
remaining binding at 10 µM [25]: 65%
remaining binding at 10 µM [26]: 100%
remaining binding at 10 µM [27]: 85%
remaining binding at 10 µM [28]: 97%
remaining binding at 10 µM [29]: 84%

CNc1c(C(N)=O)c2ccccn2c1C(=O)c1ccc(F)cc1 [Compound A, 2-methyl-amino-3-[(4-fluorophenyl)carbonyl]indolizine-1-carboxamide]
AUCex ([1]; IV 3 mg/kg): 0.1%
AUCex ([1]; PO 3 mg/kg): 6.3%
AUCex ([1]; PO 30 mg/kg): 18.5%
clearance after administration ([1]; male CD-1 mice, 24 hours after administration): completely cleared after 24 hours
AUC(0-t) [1, 30]: 502 ng·h/mL
AUC(0-t) [1, 31]: 498 ng·h/mL
AUC(0-t) [1, 32]: 35.4 ng·h/mL
AUC(0-t) [1, 33]: 32.4 ng·h/mL
AUC(0-t) [1, 34]: 659 ng·h/mL
AUC(0-t) [1, 35]: 470 ng·h/mL
bioavailability ([1]; PO 3 mg/kg, male CD-1 mice): 7%
bioavailability ([1]; PO 30 mg/kg, male CD-1 mice): 9%
Cmax ([1]; IV 3 mg/kg, male CD-1 mice): 1680 ng/mL
Tmax ([1]; IV 3 mg/kg, male CD-1 mice): 4.98 min
half-life ([1]; IV 3 mg/kg, male CD-1 mice): 13.8 min
AUC(0-inf) ([1]; IV 3 mg/kg, male CD-1 mice): 499 ng·h/mL
clearance ([1]; IV 3 mg/kg, male CD-1 mice): 100 mL/min/kg
Vd ([1]; IV 3 mg/kg, male CD-1 mice): 2 L/kg
Cmax ([1]; PO 3 mg/kg, male CD-1 mice): 47 ng/mL
Tmax ([1]; PO 3 mg/kg, male CD-1 mice): 15 min
half-life ([1]; PO 3 mg/kg, male CD-1 mice): 29.4 min
AUC(0-inf) ([1]; PO 3 mg/kg, male CD-1 mice): 34.6 ng·h/mL
CL/F ([1]; PO 3 mg/kg, male CD-1 mice): 1450 mL/min/kg
Vd/F ([1]; PO 3 mg/kg, male CD-1 mice): 61.4 L/kg
Cmax ([1]; PO 30 mg/kg, male CD-1 mice): 237 ng/mL
Tmax ([1]; PO 30 mg/kg, male CD-1 mice): 30 min
half-life ([1]; PO 30 mg/kg, male CD-1 mice): 210 min
AUC(0-inf) ([1]; PO 30 mg/kg, male CD-1 mice): 576 ng·h/mL
CL/F ([1]; PO 30 mg/kg, male CD-1 mice): 868 mL/min/kg
Vd/F ([1]; PO 30 mg/kg, male CD-1 mice): 264 L/kg
remaining binding at 10 µM [2]: 14%
remaining binding at 10 µM [3]: 11%
remaining binding at 10 µM [4]: 93%
remaining binding at 10 µM [5]: 65%
remaining binding at 10 µM [6]: 70%
remaining binding at 10 µM [7]: 85%
remaining binding at 10 µM [8]: 89%
remaining binding at 10 µM [9]: 85%
remaining binding at 10 µM [10]: 24%
remaining binding at 10 µM [11]: 45%
remaining binding at 10 µM [12]: 71%
remaining binding at 10 µM [13]: 32%
remaining binding at 10 µM [14]: 61%
remaining binding at 10 µM [15]: 91%
remaining binding at 10 µM [16]: 85%
remaining binding at 10 µM [17]: 87%
remaining binding at 10 µM [18]: 83%
remaining binding at 10 µM [19]: 92%
remaining binding at 10 µM [20]: 79%
remaining binding at 10 µM [21]: 100%
remaining binding at 10 µM [22]: 85%
remaining binding at 10 µM [23]: 93%
remaining binding at 10 µM [24]: 100%
remaining binding at 10 µM [25]: 78%
remaining binding at 10 µM [26]: 83%
remaining binding at 10 µM [27]: 74%
remaining binding at 10 µM [28]: 99%
remaining binding at 10 µM [29]: 64%
